Test results as given in publication PMC9917632, “Structural and Biochemical Analyses of the Butanol Dehydrogenase from Fusobacterium nucleatum” (International Journal of Molecular Sciences, 2023).
Values belong to the compound of their own block, whether it stands above or below them.

Legend:
[1] = biological target: T1, FnYqdH (Fusobacterium nucleatum YqdH, butanol dehydrogenase) (Fusobacterium nucleatum, UniProt Q8R612); assay: NADH consumption at […] nm, double reciprocal plot; format: biochemical; details: 0.1-0.5 mM NADH; co-substrate butanal; Tris-HCl pH 6.0, CoSO4, 35 °C (standard assay)
T1 construct: gene FN1415; recombinant, yqdH cloned NcoI/XhoI in pPRO-EX-HTA, expressed in Escherichia coli; dimer; 384 residues modelled (CD to residue 385)
T1 sequence (Q8R612 1-385): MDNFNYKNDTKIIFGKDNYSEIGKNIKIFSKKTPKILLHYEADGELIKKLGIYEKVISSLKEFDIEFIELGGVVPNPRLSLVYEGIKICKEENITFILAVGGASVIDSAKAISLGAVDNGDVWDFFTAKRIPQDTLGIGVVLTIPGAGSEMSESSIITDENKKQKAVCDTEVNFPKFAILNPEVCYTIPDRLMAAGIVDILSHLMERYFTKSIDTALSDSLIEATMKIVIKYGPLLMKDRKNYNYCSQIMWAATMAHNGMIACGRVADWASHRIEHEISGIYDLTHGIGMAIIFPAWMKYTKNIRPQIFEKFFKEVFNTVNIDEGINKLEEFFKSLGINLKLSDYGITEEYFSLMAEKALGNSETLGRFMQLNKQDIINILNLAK

[2] = biological target: T1, FnYqdH (Fusobacterium nucleatum YqdH, butanol dehydrogenase); assay: X-ray crystal structure, […] Å, soaked crystal; details: soaked 1 min with 10 mM NADH and 2 mM Co2+; nucleotide-binding domain; open conformation
TmBDH = biological target: T2, TmBDH (Thermotoga maritima, UniProt Q9WZS7); assay: NADH consumption, spectrophotometric; format: biochemical; details: metal-free enzyme reconstituted with 2 mM Zn2+, Co2+, Ni2+ or Fe3+; co-substrate butanal
T2 construct: gene TM_0820; purified protein, EDTA-treated (metal-free) then metal-reconstituted
T2 sequence (Q9WZS7 1-395): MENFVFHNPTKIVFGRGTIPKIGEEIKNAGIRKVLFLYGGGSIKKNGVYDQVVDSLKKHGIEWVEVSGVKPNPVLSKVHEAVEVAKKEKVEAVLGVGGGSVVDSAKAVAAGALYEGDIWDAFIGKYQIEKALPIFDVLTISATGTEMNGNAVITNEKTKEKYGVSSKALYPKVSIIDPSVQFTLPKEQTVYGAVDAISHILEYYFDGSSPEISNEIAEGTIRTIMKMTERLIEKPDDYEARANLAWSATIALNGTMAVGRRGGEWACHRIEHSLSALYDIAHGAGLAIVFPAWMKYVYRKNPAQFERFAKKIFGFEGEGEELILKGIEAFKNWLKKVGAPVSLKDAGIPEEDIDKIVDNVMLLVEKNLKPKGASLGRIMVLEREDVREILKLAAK

[3] = biological target: T1, FnYqdH (Fusobacterium nucleatum YqdH, butanol dehydrogenase); assay: NADPH consumption at […] nm, double reciprocal plot; format: biochemical; details: 0.1-1 mM NADPH; co-substrate butanal; Tris-HCl pH 6.0, CoSO4, 35 °C (standard assay)
[4] = biological target: Fusobacterium nucleatum YqdH (butanol dehydrogenase) (Fusobacterium nucleatum); assay: SEC; purified FnYqdH (500 uL of 1 mg/mL) on Superdex 200 10/300 GL; 20 mM Tris-HCl pH 8.0, 150 mM NaCl, 2 mM BME; 0.5 mL/min

Compound: NC(=O)C1=CN([C@@H]2O[C@H](COP(=O)(O)OP(=O)(O)OC[C@H]3O[C@@H](n4cnc5c(N)ncnc54)[C@H](O)[C@@H]3O)[C@@H](O)[C@H]2O)C=CC1 [NADH]
apparent Km [1]: the apparent Km and Vmax values were measured with a purified protein
X-ray crystal structure, 2.72 Å, soaked crystal [2]: an electron-density map corresponding to NADH and metal ions was clearly observed
NADH consumption, spectrophotometric (TmBDH): monitoring NADH consumption for five different metal ions

Compound: NC(=O)C1=CN([C@@H]2O[C@H](COP(=O)(O)OP(=O)(O)OC[C@H]3O[C@@H](n4cnc5c(N)ncnc54)[C@H](OP(=O)(O)O)[C@@H]3O)[C@@H](O)[C@H]2O)C=CC1 [NADPH]
apparent Km [3]: NADH is preferred over NADPH in terms of FnYqdH activity (Figure S2)

stoichiometry N [4]: 2
Compound: Fusobacterium nucleatum YqdH (butanol dehydrogenase) (enzyme)
